According to PubChem BioAssay AID248 (DTP/NCI, 2004):
Where “and” joins values, the source holds several entries; their conditions need not be identical. Equal values may be shown once. Inconclusive results and toxic doses are left out.

System: L1210 leukemia ip in BDF1 mice, survival T/C
Assay: NCI In Vivo Anticancer Drug Screen. Data for tumor model L1210 Leukemia (intraperitoneal) in B6D2F1 (BDF1) mice
Conditions: higher = longer survival
Outline: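 Each compound was tested against a transplantable tumor grown in mice. The endpoint was survival, with treated animals benchmarked against vehicle controls as a simple ratio.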

## CC[n+]1ccc(Nc2ccc(NC(=O)c3ccc(Nc4cc[n+](CC)c5ccc(N)cc45)cc3)cc2)cc1
endpoint: mean survival time, dose: 0.12 mg/kg/injection, schedule: Q01DX005 (iv), vehicle: water
  T/C: 101 % of control
endpoint: mean survival time, dose: 0.12 mg/kg/injection, schedule: Q04DX003 (iv), vehicle: water
  T/C: 105 % of control
endpoint: mean survival time, dose: 0.25 mg/kg/injection, schedule: Q01DX005 (iv), vehicle: water
  T/C: 105 % of control
endpoint: mean survival time, dose: 0.25 mg/kg/injection, schedule: Q03HX024 (ip), vehicle: water
  T/C: 113 % of control
endpoint: mean survival time, dose: 0.25 mg/kg/injection, schedule: Q04DX003 (iv), vehicle: water
  T/C: 102 % of control
endpoint: mean survival time, dose: 0.5 mg/kg/injection, schedule: Q01DX005 (iv), vehicle: water
  T/C: 100 % of control and 103 % of control
endpoint: mean survival time, dose: 0.5 mg/kg/injection, schedule: Q01DX009 (sc), vehicle: water
  T/C: 94 % of control
endpoint: mean survival time, dose: 0.5 mg/kg/injection, schedule: Q03HX024 (ip), vehicle: water
  T/C: 157 % of control
endpoint: mean survival time, dose: 0.5 mg/kg/injection, schedule: Q03HX024 (oral), vehicle: water
  T/C: 97 % of control
endpoint: mean survival time, dose: 0.5 mg/kg/injection, schedule: Q04DX003 (iv), vehicle: water
  T/C: 101 % of control
endpoint: mean survival time, dose: 0.75 mg/kg/injection, schedule: Q01DX009 (ip), vehicle: saline
  T/C: 152 % of control and 201 % of control
endpoint: mean survival time, dose: 1.0 mg/kg/injection, schedule: Q01DX005 (iv), vehicle: water
  T/C: 115 % of control
endpoint: mean survival time, dose: 1.0 mg/kg/injection, schedule: Q01DX009 (ip), vehicle: water
  T/C: 180 % of control and 211 % of control
endpoint: mean survival time, dose: 1.0 mg/kg/injection, schedule: Q01DX009 (oral), vehicle: water
  T/C: 103 % of control
endpoint: mean survival time, dose: 1.0 mg/kg/injection, schedule: Q01DX009 (sc), vehicle: water
  T/C: 112 % of control and 122 % of control
endpoint: mean survival time, dose: 1.0 mg/kg/injection, schedule: Q03HX016 (ip), vehicle: water
  T/C: 156 % of control
endpoint: mean survival time, dose: 1.0 mg/kg/injection, schedule: Q03HX024 (ip), vehicle: water
  T/C: 186 % of control and 187 % of control and 208 % of control
endpoint: mean survival time, dose: 1.0 mg/kg/injection, schedule: Q03HX024 (oral), vehicle: water
  T/C: 96 % of control and 101 % of control
endpoint: mean survival time, dose: 1.0 mg/kg/injection, schedule: Q03HX024 (sc), vehicle: water
  T/C: 164 % of control
endpoint: mean survival time, dose: 1.0 mg/kg/injection, schedule: Q04DX003 (iv), vehicle: water
  T/C: 103 % of control
endpoint: mean survival time, dose: 1.5 mg/kg/injection, schedule: Q01DX009 (ip), vehicle: saline
  T/C: 160 % of control and 171 % of control
endpoint: mean survival time, dose: 1.9 mg/kg/injection, schedule: Q01DX009 (ip), vehicle: saline
  T/C: 281 % of control
endpoint: mean survival time, dose: 2.0 mg/kg/injection, schedule: Q01DX005 (iv), vehicle: water
  T/C: 103 % of control
endpoint: mean survival time, dose: 2.0 mg/kg/injection, schedule: Q01DX009 (oral), vehicle: water
  T/C: 103 % of control
endpoint: mean survival time, dose: 2.0 mg/kg/injection, schedule: Q01DX009 (sc), vehicle: water
  T/C: 189 % of control and 206 % of control
endpoint: mean survival time, dose: 2.0 mg/kg/injection, schedule: Q03HX016 (ip), vehicle: water
  T/C: 188 % of control
endpoint: mean survival time, dose: 2.0 mg/kg/injection, schedule: Q03HX024 (ip), vehicle: water
  T/C: 123 % of control and 218 % of control
endpoint: mean survival time, dose: 2.0 mg/kg/injection, schedule: Q03HX024 (oral), vehicle: water
  T/C: 97 % of control and 100 % of control
endpoint: mean survival time, dose: 2.0 mg/kg/injection, schedule: Q03HX024 (sc), vehicle: water
  T/C: 211 % of control
endpoint: mean survival time, dose: 2.0 mg/kg/injection, schedule: Q04DX003 (ip), vehicle: water
  T/C: 113 % of control and 120 % of control
endpoint: mean survival time, dose: 2.0 mg/kg/injection, schedule: Q04DX003 (iv), vehicle: water
  T/C: 105 % of control
endpoint: mean survival time, dose: 3.0 mg/kg/injection, schedule: Q01DX009 (ip), vehicle: saline
  T/C: 274 % of control
endpoint: mean survival time, dose: 3.2 mg/kg/injection, schedule: Q01DX009 (ip), vehicle: saline
  T/C: 313 % of control
endpoint: mean survival time, dose: 4.0 mg/kg/injection, schedule: Q01DX001 (ip), vehicle: water
  T/C: 111 % of control
endpoint: mean survival time, dose: 4.0 mg/kg/injection, schedule: Q01DX009 (oral), vehicle: water
  T/C: 96 % of control
endpoint: mean survival time, dose: 4.0 mg/kg/injection, schedule: Q01DX009 (sc), vehicle: water
  T/C: 116 % of control and 219 % of control
endpoint: mean survival time, dose: 4.0 mg/kg/injection, schedule: Q03HX016 (ip), vehicle: water
  T/C: 271 % of control
endpoint: mean survival time, dose: 4.0 mg/kg/injection, schedule: Q03HX024 (ip), vehicle: water
  T/C: 112 % of control
endpoint: mean survival time, dose: 4.0 mg/kg/injection, schedule: Q03HX024 (oral), vehicle: water
  T/C: 100 % of control and 101 % of control
endpoint: mean survival time, dose: 4.0 mg/kg/injection, schedule: Q08DX002 (ip), vehicle: water
  T/C: 107 % of control
endpoint: mean survival time, dose: 4.0 mg/kg/injection, schedule: Q08DX002 (oral), vehicle: water
  T/C: 101 % of control
endpoint: mean survival time, dose: 5.0 mg/kg/injection, schedule: Q01DX009 (oral), vehicle: water
  T/C: 103 % of control
endpoint: mean survival time, dose: 6.0 mg/kg/injection, schedule: Q01DX009 (ip), vehicle: saline
  T/C: 271 % of control
endpoint: mean survival time, dose: 8.0 mg/kg/injection, schedule: Q01DX009 (ip), vehicle: water
  T/C: 96 % of control
endpoint: mean survival time, dose: 8.0 mg/kg/injection, schedule: Q01DX009 (oral), vehicle: water
  T/C: 104 % of control (2×) and 107 % of control
endpoint: mean survival time, dose: 8.0 mg/kg/injection, schedule: Q01DX009 (sc), vehicle: water
  T/C: 101 % of control and 117 % of control
endpoint: mean survival time, dose: 8.0 mg/kg/injection, schedule: Q03HX024 (oral), vehicle: water
  T/C: 106 % of control
endpoint: mean survival time, dose: 8.0 mg/kg/injection, schedule: Q03HX024 (sc), vehicle: water
  T/C: 104 % of control
endpoint: mean survival time, dose: 8.0 mg/kg/injection, schedule: Q04DX003 (ip), vehicle: water
  T/C: 160 % of control and 164 % of control and 175 % of control
endpoint: mean survival time, dose: 9.0 mg/kg/injection, schedule: Q01DX009 (ip), vehicle: saline
  T/C: 109 % of control
endpoint: mean survival time, dose: 10.0 mg/kg/injection, schedule: Q01DX009 (oral), vehicle: water
  T/C: 103 % of control
endpoint: mean survival time, dose: 16.0 mg/kg/injection, schedule: Q01DX009 (ip), vehicle: water
  T/C: 94 % of control
endpoint: mean survival time, dose: 16.0 mg/kg/injection, schedule: Q01DX009 (oral), vehicle: water
  T/C: 101 % of control
endpoint: mean survival time, dose: 16.0 mg/kg/injection, schedule: Q04DX003 (ip), vehicle: water
  T/C: 177 % of control and 190 % of control and 245 % of control
endpoint: mean survival time, dose: 18.0 mg/kg/injection, schedule: Q01DX001 (ip), vehicle: saline
  T/C: 157 % of control
endpoint: mean survival time, dose: 20.0 mg/kg/injection, schedule: Q01DX009 (oral), vehicle: water
  T/C: 100 % of control
endpoint: mean survival time, dose: 25.0 mg/kg/injection, schedule: Q01DX001 (ip), vehicle: saline
  T/C: 120 % of control
endpoint: mean survival time, dose: 32.0 mg/kg/injection, schedule: Q01DX009 (oral), vehicle: water
  T/C: 103 % of control and 111 % of control
endpoint: mean survival time, dose: 32.0 mg/kg/injection, schedule: Q03HX008 (ip), vehicle: water
  T/C: 190 % of control
endpoint: mean survival time, dose: 40.0 mg/kg/injection, schedule: Q01DX009 (oral), vehicle: water
  T/C: 105 % of control
endpoint: mean survival time, dose: 64.0 mg/kg/injection, schedule: Q01DX009 (oral), vehicle: water
  T/C: 100 % of control and 102 % of control
endpoint: mean survival time, dose: 80.0 mg/kg/injection, schedule: Q01DX009 (oral), vehicle: water
  T/C: 110 % of control
endpoint: median survival time, dose: 0.5 mg/kg/injection, schedule: Q03HX024 (ip), vehicle: water
  T/C: 120 % of control and 122 % of control
endpoint: median survival time, dose: 1.3 mg/kg/injection, schedule: Q03HX024 (ip), vehicle: water
  T/C: 190 % of control and 191 % of control
endpoint: median survival time, dose: 2.2 mg/kg/injection, schedule: Q01DX009 (ip), vehicle: water
  T/C: 195 % of control and 198 % of control
endpoint: median survival time, dose: 2.2 mg/kg/injection, schedule: Q03HX024 (ip), vehicle: water
  T/C: 235 % of control and 247 % of control
endpoint: median survival time, dose: 3.6 mg/kg/injection, schedule: Q01DX009 (ip), vehicle: water
  T/C: 225 % of control and 227 % of control
endpoint: median survival time, dose: 6.0 mg/kg/injection, schedule: Q01DX009 (ip), vehicle: water
  T/C: 170 % of control and 172 % of control
endpoint: median survival time, dose: 10.0 mg/kg/injection, schedule: Q01DX009 (ip), vehicle: water
  T/C: 120 % of control and 122 % of control
